Test results from patent US12486290B2, “Isoindolinone and indazole compounds for the degradation of EGFR” (C4 THERAPEUTICS, INC., priority 2019, dated 2025).

Key:
Format in all cases: cell-based
[1] = target: T1, EGFR T790M/L858R (NCI-H1975 cells) (Homo sapiens, UniProt P00533, L858R/T790M); assay: EGFR (L858R) degradation analysis, Total EGFR (L858R) HTRF, NCI-H1975 cells; details: 6 hours
T1 construct: NCI-H1975 (harboring EGFR heterozygous T790M/L858R mutations); host or cells: NCI-H1975
Method in brief: (§1)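 Cells (10000/well NCI-H1975 and NCI-H1975+CS, 1000/well NCI-H3255) treated with 11-point half-log titrations from 10 μM top, in duplicate, for 6 hours at 37° C., 5% CO2. Total EGFR (L858R) quantified by HTRF FRET; untreated cells as negative and cell-free wells as positive control.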

[2] = target: T2, EGFR L858R (NCI-H3255 cells) (Homo sapiens, UniProt P00533, L858R); assay: EGFR (L858R) degradation analysis, Total EGFR (L858R) HTRF, NCI-H3255 cells; details: 6 hours
T2 construct: NCI-H3255 (harboring EGFR heterozygous L858R mutation); host or cells: NCI-H3255
Method in brief: as §1

[3] = target: T3, EGFR T790M/L858R/C797S (NCI-H1975+CS cells) (Homo sapiens, UniProt P00533, C797S/L858R/T790M); assay: EGFR (L858R) degradation analysis, Total EGFR (L858R) HTRF, NCI-H1975+CS cells; details: 6 hours, read-out: H1975 C797S clone EGFR DC50
T3 construct: NCI-H1975+CS (harboring EGFR heterozygous T/790M/L858R/C797S mutations) was generated using CRISPR technology; host or cells: NCI-H1975+CS (CRISPR-edited NCI-H1975)
From the text: NCI-H1975 (harboring EGFR heterozygous T790M/L858R mutations) and NCI-H3255 (harboring EGFR heterozygous L858R mutation) were purchased from ATCC and NCI, respectively. NCI-H1975+CS (harboring EGFR heterozygous T/790M/L858R/C797S mutations) was generated using CRISPR technology to introduce the additional C797S mutation by Horizon Discovery. RPMI 1640 no-phenol red medium and fetal bovine serum (FBS) were purchased from Gibco (Grand Island, NY, USA). Cell culture flasks and 384-well microplates were acquired from VWR (Radnor, PA, USA). Total EGFR (L858R) HTRF assay kits were purchased from Cisbio (Bedford, MA, USA).
Degradation of EGFR protein containing L858R mutation was determined based on quantification of FRET signal using Total EGFR (L858R) HTRF assay kit. Test compounds were added to the 384-well plate from a top concentration of 10 μM with 11 points, half log titration in duplicates. NCI-H1975, NCI-H1975+CS or NCI-H3255 cells were added into 384-well plates at a cell density of 10000, 10000 or 1000 cells per well, respectively. The plates were kept at 37° C. with 5% CO2 for 6 hours. Cells treated in the absence of the test compound were the negative control. Positive control was set by wells containing all reagents but no cells. FRET signal was acquired on EnVision™ Multilabel Reader (PerkinElmer, Santa Clara, CA, USA).

T1 sequence (P00533 25-1210 T790M/L858R): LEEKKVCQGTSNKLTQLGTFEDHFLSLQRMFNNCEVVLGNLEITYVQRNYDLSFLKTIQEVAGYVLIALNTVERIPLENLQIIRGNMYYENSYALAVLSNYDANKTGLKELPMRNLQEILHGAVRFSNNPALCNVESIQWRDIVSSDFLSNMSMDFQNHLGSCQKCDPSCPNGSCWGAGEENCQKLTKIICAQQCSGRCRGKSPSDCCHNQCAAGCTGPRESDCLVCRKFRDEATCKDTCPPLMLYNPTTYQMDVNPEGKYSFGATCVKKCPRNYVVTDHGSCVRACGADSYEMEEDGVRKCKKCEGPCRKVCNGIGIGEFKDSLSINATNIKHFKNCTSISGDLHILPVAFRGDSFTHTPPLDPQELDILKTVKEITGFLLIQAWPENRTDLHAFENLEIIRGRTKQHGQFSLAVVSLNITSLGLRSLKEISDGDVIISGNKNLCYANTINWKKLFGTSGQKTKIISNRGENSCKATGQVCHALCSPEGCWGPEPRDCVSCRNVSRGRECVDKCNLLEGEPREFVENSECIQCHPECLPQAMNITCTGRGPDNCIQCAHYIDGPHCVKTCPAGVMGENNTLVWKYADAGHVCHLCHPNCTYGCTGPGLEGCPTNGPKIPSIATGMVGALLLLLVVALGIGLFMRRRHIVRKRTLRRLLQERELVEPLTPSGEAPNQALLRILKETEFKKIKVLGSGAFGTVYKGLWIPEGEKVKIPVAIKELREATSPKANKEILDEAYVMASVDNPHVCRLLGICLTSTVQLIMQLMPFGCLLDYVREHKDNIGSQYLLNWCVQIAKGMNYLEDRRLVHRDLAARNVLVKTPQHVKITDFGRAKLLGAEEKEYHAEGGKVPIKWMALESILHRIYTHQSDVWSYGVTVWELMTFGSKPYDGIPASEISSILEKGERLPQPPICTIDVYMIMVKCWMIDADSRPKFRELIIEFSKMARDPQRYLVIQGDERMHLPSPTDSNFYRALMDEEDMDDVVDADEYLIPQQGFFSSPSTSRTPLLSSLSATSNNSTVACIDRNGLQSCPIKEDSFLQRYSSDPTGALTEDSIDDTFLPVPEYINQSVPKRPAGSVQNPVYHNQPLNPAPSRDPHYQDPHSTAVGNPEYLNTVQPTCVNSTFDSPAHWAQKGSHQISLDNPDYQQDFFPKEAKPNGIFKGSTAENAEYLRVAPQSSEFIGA
T3 sequence (P00533 25-1210 T790M/C797S/L858R): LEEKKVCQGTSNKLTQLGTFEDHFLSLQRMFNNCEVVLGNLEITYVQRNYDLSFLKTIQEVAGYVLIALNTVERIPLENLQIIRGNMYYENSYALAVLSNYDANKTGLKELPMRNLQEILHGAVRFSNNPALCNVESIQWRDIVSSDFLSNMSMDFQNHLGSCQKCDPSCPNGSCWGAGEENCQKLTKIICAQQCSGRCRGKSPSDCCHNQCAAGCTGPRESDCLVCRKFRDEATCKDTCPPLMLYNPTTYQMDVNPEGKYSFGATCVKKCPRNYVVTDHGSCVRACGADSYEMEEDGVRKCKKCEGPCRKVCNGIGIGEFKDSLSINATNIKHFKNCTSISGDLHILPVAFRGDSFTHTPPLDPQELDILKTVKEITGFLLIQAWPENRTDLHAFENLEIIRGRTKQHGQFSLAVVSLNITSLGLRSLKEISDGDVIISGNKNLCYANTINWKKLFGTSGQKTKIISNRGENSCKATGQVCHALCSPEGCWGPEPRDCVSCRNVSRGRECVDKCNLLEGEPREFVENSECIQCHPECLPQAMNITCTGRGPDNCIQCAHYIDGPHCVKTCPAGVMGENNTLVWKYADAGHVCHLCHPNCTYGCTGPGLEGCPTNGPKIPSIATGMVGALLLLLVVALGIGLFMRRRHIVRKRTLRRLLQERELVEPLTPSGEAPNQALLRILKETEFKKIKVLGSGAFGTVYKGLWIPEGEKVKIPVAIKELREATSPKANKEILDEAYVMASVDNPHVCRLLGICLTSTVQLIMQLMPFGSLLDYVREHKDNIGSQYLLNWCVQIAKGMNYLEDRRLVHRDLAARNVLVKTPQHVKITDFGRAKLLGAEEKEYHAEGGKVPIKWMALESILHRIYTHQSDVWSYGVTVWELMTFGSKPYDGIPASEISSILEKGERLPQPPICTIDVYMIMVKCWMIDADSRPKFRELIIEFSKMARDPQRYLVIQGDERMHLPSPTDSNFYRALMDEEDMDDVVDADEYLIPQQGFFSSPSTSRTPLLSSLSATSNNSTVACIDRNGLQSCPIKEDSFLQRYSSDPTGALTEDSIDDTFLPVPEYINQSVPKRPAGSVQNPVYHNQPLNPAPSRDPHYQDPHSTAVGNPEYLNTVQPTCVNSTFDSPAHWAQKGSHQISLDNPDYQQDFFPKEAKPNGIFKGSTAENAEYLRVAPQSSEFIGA
T2 sequence (P00533 25-1210 L858R): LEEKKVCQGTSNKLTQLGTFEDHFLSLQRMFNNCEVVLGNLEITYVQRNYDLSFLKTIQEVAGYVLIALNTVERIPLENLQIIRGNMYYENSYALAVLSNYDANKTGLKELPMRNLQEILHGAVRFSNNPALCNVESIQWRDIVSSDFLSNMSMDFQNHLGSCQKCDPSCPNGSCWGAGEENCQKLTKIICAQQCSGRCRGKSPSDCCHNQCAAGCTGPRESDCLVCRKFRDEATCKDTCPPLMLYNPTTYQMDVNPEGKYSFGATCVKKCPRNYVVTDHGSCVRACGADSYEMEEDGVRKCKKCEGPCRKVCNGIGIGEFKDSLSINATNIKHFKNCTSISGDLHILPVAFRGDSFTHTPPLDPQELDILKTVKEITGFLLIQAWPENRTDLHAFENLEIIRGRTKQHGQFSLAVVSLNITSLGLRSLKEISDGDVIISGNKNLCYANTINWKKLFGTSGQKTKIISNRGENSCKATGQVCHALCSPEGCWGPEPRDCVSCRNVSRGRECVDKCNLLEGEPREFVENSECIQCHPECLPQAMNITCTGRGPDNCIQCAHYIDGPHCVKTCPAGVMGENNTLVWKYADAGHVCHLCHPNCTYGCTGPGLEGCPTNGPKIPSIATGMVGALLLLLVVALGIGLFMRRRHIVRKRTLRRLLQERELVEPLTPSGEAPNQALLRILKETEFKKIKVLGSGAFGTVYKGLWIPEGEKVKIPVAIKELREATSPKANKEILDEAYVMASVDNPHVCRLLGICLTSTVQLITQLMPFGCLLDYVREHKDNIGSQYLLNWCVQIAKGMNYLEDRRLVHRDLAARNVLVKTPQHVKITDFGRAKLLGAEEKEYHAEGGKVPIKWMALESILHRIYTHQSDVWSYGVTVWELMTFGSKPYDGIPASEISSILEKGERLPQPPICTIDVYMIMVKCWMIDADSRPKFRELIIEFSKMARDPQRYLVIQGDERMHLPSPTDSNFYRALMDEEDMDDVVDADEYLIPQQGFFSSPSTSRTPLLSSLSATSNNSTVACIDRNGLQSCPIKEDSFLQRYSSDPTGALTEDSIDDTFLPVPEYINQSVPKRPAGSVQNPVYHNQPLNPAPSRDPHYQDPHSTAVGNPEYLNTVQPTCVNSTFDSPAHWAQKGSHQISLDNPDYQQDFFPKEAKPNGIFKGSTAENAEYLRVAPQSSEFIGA

Q: What does the source list for `O=C1CC[C@H](Nc2ccc(C3CCN(CC(=O)N4CCN(Cc5ccc(-c6cc(F)c7c(c6)C(=O)N(C(C(=O)Nc6nccs6)c6ncn8c6CCC8)C7)cc5)CC4)CC3)c(F)c2)C(=O)N1` (stereo partly drawn) [Compound 58, 2-(6,7-dihydro-5H-pyrrolo[1,2-c]imidazol-1-yl)-2-[6-[4-[[4-[2-[4-[4-[[(3S)-2,6-dioxo-3-piperidyl]amino]-2-fluoro-phenyl]-1-piperidyl]acetyl]piperazin-1-yl]methyl]phenyl]-4-fluoro-1-oxo-isoindolin-2-yl]-N-thiazol-2-yl-acetamide]?
A: DC50 [1]: 26 nM; DC50 [2]: 26 nM; DC50 [3]: 14 nM

Q: `O=C1CCC(Nc2ccc(C3CCN(CC(=O)N4CC5(C4)CN(c4ccc(-c6cc(F)c7c(c6)C(=O)N(C(C(=O)Nc6nccs6)c6ncn8c6CCC8)C7)cc4)C5)CC3)cc2)C(=O)N1` (stereo not drawn) [Compound 47, 2-(6,7-dihydro-5H-pyrrolo[1,2-c]imidazol-1-yl)-2-[6-[4-[2-[2-[4-[4-[(2,6-dioxo-3-piperidyl)amino]phenyl]-1-piperidyl]acetyl]-2,6-diazaspiro[3.3]heptan-6-yl]phenyl]-4-fluoro-1-oxo-isoindolin-2-yl]-N-thiazol-2-yl-acetamide] was tested. Which DC50 [1] did it give?
A: The DC50 was 18 nM.

Q: What about the DC50 [2] of the same compound?
A: The DC50 was 10 nM.

Q: What about the DC50 [3] of the same compound?
A: Its DC50 is 9 nM.
